Test results: patent US7026342B2, “Method for treating fibrotic diseases or other indications utilizing thiazole, oxazole and imidazole compounds” (Alteon, Inc., priority 2000, dated 2006)
Structures can show the parent of a compound that is named as a salt.

Experiments:
TGFbeta = test: In situ hybridization studies, TGFbeta expression
Description: (§1) Cardiovascular risk correlates more closely with the systolic and the pulse pressure than with the diastolic pressure. In diabetic patients, the cardiovascular risk profile of diabetic patients is strongly correlated to duration of diabetes, glycemic control and blood pressure. Structural matrix proteins contribute to the function of vessels and the heart, and changes in the physical behavior of cardiovascular walls are believed to be important determinants of circulatory function. In elderly individuals, the loss of compliance in the aorta leads to isolated systolic hypertension, which in turn expands the arterial wall and thereby diminishes the dynamic range of elasticity.

Type IV collagen = test: In situ hybridization studies, Type IV collagen expression
Description: as §1

cardiovascular tissues = test: In vivo studies of vascular stiffening and cardiovascular collagen; parameters: species or system rodents, canines and primates
Description: as §1

dog model for diabetes = test: Dog model for diabetes, ventricular elasticity; assay type: in vivo
Description: as §1

[1] = test system: Rats with left anterior descending coronary artery ligated; test: Rat myocardial infarct model, left anterior descending coronary artery ligated; assay type: in vivo; settings: 10 mg/kg intraperitoneal daily for 30 days before ligation and 14 days after
Procedure: Rats received a daily intraperitoneal dose of 10 mg/kg 3-[2-phenyl-2-oxoethyl]-4,5-dimethyl-thiazolium salt (compound A) (n=14) or placebo (n=15) for 30 days. The animals then underwent a thoracotomy and the left anterior descending coronary artery ligated. The chest was then closed and the animals allowed to recover for 14 days while continuing to be treated with compound A or placebo. The animals were then sacrificed and the hearts removed for histological examination. The weight of the infarcted tissue was 0.16±0.04 g for the placebo treated animals compared to 0.11±0.05 g for the compound A treated animals (p=0.04).

[2] = test system: elderly patients with pulse pressures greater than 60 mm Hg; test: Phase IIa clinical trial; assay type: in vivo, human
Description: When the heart pumps blood into the vascular system, the ability of the arteries to expand helps to push blood through the body. When arteries become stiff, as they do in the natural process of aging, the ability of the arteries to expand is diminished and also has consequences for the heart. The heart has to work harder to pump the blood into the stiff arteries, and eventually hypertrophies (enlarges in size) to accomplish this. A hypertrophied heart is an inefficient pump, and is one of the disorders that leads to congestive heart failure. […] The potential clinical benefit of this is to lessen the effort that the heart must expend to push blood throughout the body. The effect is also believed to contribute to preventing hypertrophy and subsequent inefficiency of the heart, which inefficiency would contribute to congestive heart failure.
Atherosclerosis is a disease that involves deposition of blood lipids in plaque in the arteries throughout the body. In coronary arteries, accumulation of plaque progressively leads to reduced coronary flow, with occlusion of the arteries causing focal death of cardiac tissue (myocardial infarction, heart attack). If the amount of tissue that dies is large enough, death ensures. […] Reducing local deposits of plaque should eventually lessen the risk of myocardial infarction and death due to heart attacks.
Pulse pressure is the difference between systolic and diastolic blood pressure. In a young human, systolic pressure is typically 120 mm Hg and diastolic pressure is 80 mm Hg, resulting in a pulse pressure of 40 mm Hg. With age, in many individuals pulse pressure increases, largely due to the increase in systolic pressure that results from stiff vessel disease. In individuals with pulse pressure greater than 60 mm Hg there is an increased risk of death from cardiovascular morbidities. […] This decrease in pulse pressure was believed to be due primarily to the effect of the agent on lowering the systolic blood pressure.

With `Cc1sc[n+](CC(=O)c2ccccc2)c1C` [compound A, 3-[2-phenyl-2-oxoethyl]-4,5-dimethyl-thiazolium salt] the “expression of TGFbeta” value (TGFbeta) was “reduces the expression of both Type IV collagen and TGFbeta”, the “expression of Type IV collagen” value (Type IV collagen) was “reduces the expression of both Type IV collagen and TGFbeta” and the “mass of collagen in cardiovascular tissues” value (cardiovascular tissues; in vivo) was “reduction in the mass of collagen in cardiovascular tissues”. For the same compound, the vascular stiffening (cardiovascular tissues; in vivo studies in rodents, canines and primates) was “substantially ameliorating vascular stiffening”, the “end diastolic pressure and end diastolic volume, indicators of ventricular elasticity” value (dog model for diabetes) was “returned to a value at about the mid-point between the disease impaired value and the value for control dogs” and the “weight of the infarcted tissue” value ([1]; n=14, p=0.04 vs placebo) was 0.11 ± 0.05 g. The “thickness of the ventricular wall in the infarcted zone” value ([1]; n=14, p=0.09 vs placebo) was 2.56±0.22 mm, the “stiffness of arteries, measured by the ratio of stroke volume (ml) to pulse pressure (mm Hg)” value ([2]; Phase IIa clinical trial) was “showed an ability to reverse the stiffness of arteries” and the “amount of circulating triglycerides (lipids)” value ([2]; Phase IIa trial) was “increased the amount of circulating triglycerides”. The pulse pressure ([2]; Phase IIa trial, elderly patients with pulse pressures greater than 60 mm Hg, statistically significant) was “reduced pulse pressure”.
